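How tested: cells in 96-well plates exposed to compound for 48 hours at five concentrations. Abbreviation: GI50, concentration required for 50% inhibition of growth. At the TGI there is no net growth.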
Assays:
Assay in all cases: NCI tumour cell line growth inhibition, 48 h
COLO 205 colon = system: COLO 205 colon
OVCAR-3 ovarian = system: OVCAR-3 ovarian
HOP-92 NSCLC = system: HOP-92 NSCLC
PC-3 prostate = system: PC-3 prostate
NCI/ADR-RES ovarian = system: NCI/ADR-RES ovarian
A498 renal = system: A498 renal
OVCAR-4 ovarian = system: OVCAR-4 ovarian
HS 578T breast = system: HS 578T breast
786-0 renal = system: 786-0 renal

Compound | TGI (COLO 205 colon) | TGI (OVCAR-3 ovarian) | TGI (HOP-92 NSCLC) | TGI (PC-3 prostate) | TGI (NCI/ADR-RES ovarian) | TGI (A498 renal) | TGI (OVCAR-4 ovarian) | TGI (HS 578T breast) | TGI (786-0 renal) | GI50 (COLO 205 colon)
COC(=O)C(Cc1ccccc1)NP(=O)(O)OCC1OC(n2cc(F)c(=O)[nH]c2=O)CC1O (centres undefined) | > 100 µM | > 100 µM | > 55.2 µM | > 100 µM | > 100 µM | > 100 µM | > 100 µM | > 100 µM | > 100 µM | –
COc1c(O)cc(O)c2c(=O)cc(-c3ccccc3)oc12 | > 100 µM | 72.5 µM | > 100 µM | > 100 µM | > 100 µM | – | > 100 µM | > 100 µM | > 100 µM | –
C=C(C)C(O)C(O)c1c(OC)ccc2ccc(=O)oc12 (centres undefined) | > 100 µM | > 100 µM | > 100 µM | > 100 µM | > 100 µM | > 100 µM | > 100 µM | > 100 µM | > 100 µM | –
CC1(O)CC(=O)c2c(cc3ccc(-c4c5c(c(O)c6c(O)cccc46)C(=O)CC(C)(O)C5)c(O)c3c2O)C1 (centres undefined) | 0.158 µM | 0.646 µM | 0.815 µM | 11.2 µM | 6.63 µM | 3.53 µM | 12.9 µM | 4.4 µM | 7.64 µM | 0.0361 µM
O=C(O)c1ccn(-c2cccc(-n3ccc(C(=O)O)n3)n2)n1 | > 100 µM | > 100 µM | – | > 100 µM | > 100 µM | – | > 100 µM | > 100 µM | > 100 µM | –
CCNC(=O)c1cc(/C=C/c2ccc([N+](=O)[O-])o2)nc2ccccc12 | > 84.2 µM | > 100 µM | > 100 µM | > 100 µM | > 100 µM | 71 µM | > 100 µM | > 100 µM | > 100 µM | –
CCOc1cc(C2CC(c3ccc(NS(=O)(=O)c4cc([N+](=O)[O-])ccc4C)cc3)=NN2c2ccc([N+](=O)[O-])cc2[N+](=O)[O-])ccc1O (centres undefined) | 52.4 µM | 29 µM | 29.3 µM | 64.7 µM | 63.8 µM | – | 11 µM | 57.4 µM | 6.71 µM | –
C[C@H]1C[C@H]2[C@@H]3C(C)(C)O[C@]4(O)C(=O)[C@]5(O)[C@@H](C)CC[C@H]1[C@]25C(=O)[C@]34C | 38.6 µM | 68.1 µM | 62.7 µM | > 100 µM | > 100 µM | 87 µM | – | > 100 µM | > 100 µM | –
O=c1ccn(CC2(CO)CC(Cc3ccccc3)C2)c(=O)[nH]1 (centres undefined) | > 100 µM | > 100 µM | – | > 100 µM | > 100 µM | > 100 µM | > 100 µM | > 100 µM | > 100 µM | –
CC1(C)CC(=O)c2c(nc3ccc4ccccc4c3c2-c2ccc(NC(=O)CCCCCCCCC(=O)Nc3ccc(-c4c5c(nc6ccc7ccccc7c46)CC(C)(C)CC5=O)cc3)cc2)C1 | > 100 µM | > 100 µM | > 100 µM | > 100 µM | > 100 µM | > 100 µM | – | > 100 µM | > 100 µM | –
CC(=O)Nc1ccc(OC2=CCN(C)CC2)cc1 | > 100 µM | > 100 µM | – | > 100 µM | > 100 µM | – | > 100 µM | > 100 µM | > 100 µM | –
OC(CCNCc1ccccc1)c1ccc2ccccc2c1 (centres undefined) | 47.2 µM | 29.5 µM | – | 47.4 µM | 49.4 µM | 40 µM | 72.9 µM | 47.7 µM | 35.9 µM | –
CC1(C)[C@H]2CC[C@]1(C)[C@H](OC(=O)NNC(=O)O[C@@H]1C[C@@H]3CC[C@@]1(C)C3(C)C)C2 | 25.6 µM | 25.6 µM | 33.6 µM | – | – | 33.8 µM | 24.1 µM | 36.6 µM | 50.3 µM | –
CCOC(=O)c1cc2c3c(c(C(C)=O)c(O)c2[nH]1)N(CC(C)CC)CC3 (centres undefined) | > 100 µM | – | > 100 µM | > 100 µM | > 100 µM | > 100 µM | > 100 µM | 51.4 µM | > 100 µM | –
CCOP(=O)(OCC)C1CC(n2cc(C)c(=O)[nH]c2=O)OC1CO (centres undefined) | – | > 100 µM | > 100 µM | > 100 µM | – | > 100 µM | > 100 µM | > 100 µM | > 100 µM | –
COc1cc(/C=C2/C[C@H]3[C@@H]4CC=C5C[C@@H](OC(C)=O)CC[C@]5(C)[C@H]4CC[C@]3(C)NC2=O)cc(OC)c1OC | > 100 µM | > 100 µM | 52.3 µM | 44.3 µM | 54.4 µM | – | 62.3 µM | 74.2 µM | 36.7 µM | –
CCCCCC(C)SC1(C(=O)OC)CC(OC(C)=O)C(NC(C)=O)C([C@H](OC(C)=O)[C@@H](COC(C)=O)OC(C)=O)O1 (some centres undefined) | – | > 100 µM | > 100 µM | > 100 µM | > 100 µM | > 100 µM | – | 97 µM | > 100 µM | –
CSc1n[nH]c(N)c1C(=O)Nc1ccc(C)cc1 | > 100 µM | > 100 µM | 68.3 µM | > 100 µM | – | 82.7 µM | > 100 µM | > 100 µM | > 100 µM | –
CCN(C(=S)N[C@H](C(=O)N[C@@H](C)C(=O)OC)C(C)C)c1ccccc1 | > 100 µM | > 100 µM | > 100 µM | > 100 µM | > 100 µM | – | > 100 µM | – | > 100 µM | –
COc1ccc(-c2cc(-c3cc4cc(Br)ccc4nc3Cl)c(C#N)c(N)n2)cc1 | > 12.5 µM | > 12.5 µM | > 12.5 µM | > 12.5 µM | > 12.5 µM | – | > 12.5 µM | > 12.5 µM | > 12.5 µM | –
CC1CC/C(=C\c2ccc(Cl)cc2)C2OC(N)=C(C#N)C(c3ccc(Cl)cc3)=C12 (centres undefined) | 25.2 µM | 27.5 µM | – | 28.4 µM | 25.9 µM | – | – | 49.1 µM | 26.5 µM | –
O=c1c2cc(I)ccc2nc(-c2cccs2)n1-c1ccc(O)cc1 | 36.1 µM | 21.8 µM | 26.9 µM | 22.5 µM | 56.2 µM | – | 49.1 µM | – | 29.8 µM | –
NCCCN(CCCN)CCN(CCN(CCCN)CCCN)CCN(CCCN)CCCN | > 100 µM | > 100 µM | > 100 µM | > 100 µM | > 100 µM | – | > 100 µM | 58.5 µM | – | –
